These results are taken from US20100056524A1, “Compound” (priority 2008, published 2010).

For one assay, the target named is T1, ERK1 (Homo sapiens, UniProt P27361).
T1 construct: All protein kinases were of human origin and encoded full length proteins, unless indicated otherwise; GST; made in house; host or cells: E. coli
In words: ERK1 protein kinase assay. The following applies: for remaining activity at 10 µM: 10 μM compound; for remaining activity at 1 µM: 1 μM compound. In kind it is biochemical. The source says: (§1) All protein kinases were of human origin and encoded full length proteins, unless indicated otherwise. They were either expressed as glutathione S-transferase (GST) fusion proteins in Escherichia Coli or as hexahistidine (His6)-tagged proteins in insect Sf21 cells. GST fusion proteins were purified by affinity chromatography on glutathione-Sepharose, and His6-tagged proteins on nickel/nitriloacetate-agarose. The procedures for expressing some of the protein kinases used herein have been detailed previously.^8,9 The following sections outline the DNA vectors synthesised and the procedures used to express and purifying protein kinases that have not been reported previously.
The following proteins were expressed in E. coli: —CHK2[5-543], cyclin-dependent protein kinase 2 (CDK2), MAP kinase-interacting kinase 2 (MNK2), extra-cellular signal-regulated kinase 1 (ERK1).
(§2) In order to produce activated forms of Aurora B and Aurora C, insect Sf21 cells were incubated for 1 h with the protein phosphatase inhibitor okadaic acid (50 nM). JNK isoforms were activated with MKK4 and MKK7, MNK2 with p38α MAPkinase; PKBα, PKBβ, with PDK1, and ERK1 with MKK1. To activate CDK2, bacterial pellets expressing cyclin A2 and CDK2 were mixed together, lyse and purified on glutathione Sepharose. The GST-tags were removed by cleavage with PreScission protease and the CDK2-cyclin A2 complex purified by chromatography on SP-Sepharose. It was then activated with CAK1/CDK7 followed by chromatography on nickel-nitrilotriacetate agarose to remove CAK1/CDK7, which binds to this column by virtue of its C-terminal His6 tag. All the other protein kinases were active as expressed.
(§3) All assays (25.5 μl) were carried out at room temperature (21° C.) and were linear with respect to time and enzyme concentration under the conditions used. Assays were performed for 30 min using Multidrop Micro reagent dispensers (Thermo Electron Corporation, Waltham, Mass. 02454, USA) in a 96-well format. The concentration of magnesium acetate in the assays was 10 mM and the [γ-33P] ATP (800 cpm/pmol) was used at 5, 20 or 50 μM as indicated, in order to be at or below the Km for ATP for each enzyme. Protein kinases assayed at 5 μM ATP were: —ERK1, ERK8, PKBα, MARK3, Aurora C. Protein kinases assayed at 20 μM ATP were: —JNK1, PDK1, CHK1, CHK2, CDK2 and Aurora B. Protein kinases assayed at 50 μM ATP were: —MNK2, IKKepsilon and TBK1.
(§4) The assays were initiated with MgATP, stopped by addition of 5 μl of 0.5 M orthophosphoric acid and spotted on to P81 filterplates using a unifilter harvester (PerkinElmer, Boston, Mass. 02118, USA). The IC50 values of inhibitors were determined after carrying out assays at 10 different concentrations of each compound.
ERK1 and ERK8 were both assayed against myelin basic protein (MBP, 0.33 mg/ml). MARK3 was assayed against the peptide […] (300 μM), MNK2 against the eIF4E protein (0.5 mg/ml). PKBβ was assayed against the peptide […] (30 μM). TBK1 were assayed against ([…]) (300 μM). The substrates used for other protein kinases were described previously.^8,9
(§5) Unless stated otherwise, enzymes were diluted in 50 mM Tris/HCl pH 7.5, 0.1 mM EGTA, 1 mg/ml BSA, 0.1% (v/v) 2-mercaptoethanol and assayed in 50 mM Tris/HCl pH 7.5, 0.1 mM EGTA, 0.1% (v/v) 2-mercaptoethanol.

In the next assay the target is T2, SRPK1 (Homo sapiens, UniProt Q96SB4).
T2 construct: All protein kinases were of human origin and encoded full length proteins, unless indicated otherwise; made in house
In words: SRPK1 protein kinase assay. In kind it is biochemical. As to conditions: for remaining activity at 10 µM: 10 μM compound; for remaining activity at 1 µM: 1 μM compound.
Excerpt: as §1, §3, §4, §5

Another assay addresses T3, CAMKKb (Homo sapiens, UniProt Q96RR4).
T3 construct: All protein kinases were of human origin and encoded full length proteins, unless indicated otherwise; made in house
Nature of the assay: CAMKKb protein kinase assay. The class given is biochemical. As to conditions: for remaining activity at 10 µM: 10 μM compound; for remaining activity at 1 µM: 1 μM compound.
Excerpt: as §1, §3, §4, §5

The next assay relates to ROCK 2. In words: ROCK 2 protein kinase assay. The class given is biochemical, human. As to conditions: for residual kinase activity: ROCK 2.
Excerpt: as §1, §3, §4, §5

In the next assay the target is T4, PKBa (Homo sapiens, UniProt P31749, S473D).
T4 construct: protein kinase Bα[118-480][S473D]; His6; made in house; host or cells: insect Sf21 cells
In words: PKBa protein kinase assay. The following applies: for remaining activity at 10 µM: 10 μM compound. In kind it is biochemical.
Excerpt: as §1
The following kinases were expressed in Sf21 cells: Aurora B and Aurora C, extra-cellular signal-regulated kinase 8 (ERK8), microtubule affinity regulating kinase 3 (MARK3), protein kinase Bα[118-480][S473D], protein kinase Bβ (PKBβ[120-481][S474D], 3-phosphoinositide-dependent protein kinase-1 [52-556]
as §2, §3, §4, §5

A further assay deals with T5, Lck (Homo sapiens, UniProt P06239).
T5 construct: All protein kinases were of human origin and encoded full length proteins, unless indicated otherwise; made in house
Nature of the assay: Lck protein kinase assay. The class given is biochemical. As to conditions: for remaining activity at 10 µM: 10 μM compound; for remaining activity at 1 µM: 1 μM compound.
Excerpt: as §1, §3, §4, §5

In another assay the test system is CK1. In words: CK1 protein kinase assay. The class given is biochemical, human. The following applies: for residual kinase activity: CK1.
Excerpt: as §1, §3, §4, §5

The target of a further assay is T6, PAK6 (Homo sapiens, UniProt Q9NQU5).
T6 construct: All protein kinases were of human origin and encoded full length proteins, unless indicated otherwise; made in house
In words: PAK6 protein kinase assay. The following applies: for remaining activity at 10 µM: 10 μM compound; for remaining activity at 1 µM: 1 μM compound. In kind it is biochemical.
Excerpt: as §1, §3, §4, §5

The test system of the next assay is IRR. Nature of the assay: IRR protein kinase assay. The class given is biochemical, human. The following applies: for residual kinase activity: IRR.
Excerpt: as §1, §3, §4, §5

In another assay the target is T7, MST4 (Homo sapiens, UniProt Q9P289).
T7 construct: All protein kinases were of human origin and encoded full length proteins, unless indicated otherwise; made in house
Nature of the assay: MST4 protein kinase assay. As to conditions: for remaining activity at 10 µM: 10 μM compound; for remaining activity at 1 µM: 1 μM compound. The class given is biochemical.
Excerpt: as §1, §3, §4, §5

A further assay addresses T8, DYRK1A (Homo sapiens, UniProt Q13627).
T8 construct: All protein kinases were of human origin and encoded full length proteins, unless indicated otherwise; made in house
Nature of the assay: DYRK1A protein kinase assay. In kind it is biochemical. The following applies: for remaining activity at 10 µM: 10 μM compound; for remaining activity at 1 µM: 1 μM compound.
Excerpt: as §1, §3, §4, §5

The target of the next assay is PKBb (Homo sapiens, UniProt P31751, S474D). In words: PKBb protein kinase assay.
Setting [1] is: read-out: residual kinase activity PKBb.
[2] abbreviates: ERK1, 5 μM ATP, read-out: residual kinase activity.
Setting [3] is: SRPK1, read-out: residual kinase activity.
The mark [4] stands for this setting: CAMKKb, read-out: residual kinase activity.
The mark [5] stands for this setting: PKBa, 1 μM compound, 5 μM ATP, read-out: residual kinase activity.
Setting [6] is: PKBa, 5 μM ATP, read-out: residual kinase activity.
Setting [7] is: Lck, read-out: residual kinase activity.
The mark [8] stands for this setting: PAK6, read-out: residual kinase activity.
The mark [9] stands for this setting: MST4, read-out: residual kinase activity.
Setting [10] is: DYRK1A, read-out: residual kinase activity.
Where [11] appears, read: read-out: residual kinase activity.

Where a name gives a salt, the structure may show the parent alone. Read-outs that look alike come from different tables or passages of the source.

T3 sequence (Q96RR4 whole entry): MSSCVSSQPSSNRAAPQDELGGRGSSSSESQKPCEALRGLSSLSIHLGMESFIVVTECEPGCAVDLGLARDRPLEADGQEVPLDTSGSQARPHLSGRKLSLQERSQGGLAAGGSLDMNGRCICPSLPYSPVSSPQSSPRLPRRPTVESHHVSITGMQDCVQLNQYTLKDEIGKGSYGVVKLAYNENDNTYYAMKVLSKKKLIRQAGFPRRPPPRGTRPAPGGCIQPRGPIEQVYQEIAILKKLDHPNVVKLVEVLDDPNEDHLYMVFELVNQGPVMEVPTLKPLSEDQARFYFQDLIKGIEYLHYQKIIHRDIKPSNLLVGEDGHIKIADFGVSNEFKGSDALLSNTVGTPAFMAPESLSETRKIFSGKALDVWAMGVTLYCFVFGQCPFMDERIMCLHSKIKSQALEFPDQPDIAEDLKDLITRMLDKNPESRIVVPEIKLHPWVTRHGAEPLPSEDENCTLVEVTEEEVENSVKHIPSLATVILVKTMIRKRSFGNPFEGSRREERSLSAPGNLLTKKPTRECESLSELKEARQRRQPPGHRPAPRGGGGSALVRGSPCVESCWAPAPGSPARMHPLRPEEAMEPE
Chain of PKBb (P31751 120-481 S474D): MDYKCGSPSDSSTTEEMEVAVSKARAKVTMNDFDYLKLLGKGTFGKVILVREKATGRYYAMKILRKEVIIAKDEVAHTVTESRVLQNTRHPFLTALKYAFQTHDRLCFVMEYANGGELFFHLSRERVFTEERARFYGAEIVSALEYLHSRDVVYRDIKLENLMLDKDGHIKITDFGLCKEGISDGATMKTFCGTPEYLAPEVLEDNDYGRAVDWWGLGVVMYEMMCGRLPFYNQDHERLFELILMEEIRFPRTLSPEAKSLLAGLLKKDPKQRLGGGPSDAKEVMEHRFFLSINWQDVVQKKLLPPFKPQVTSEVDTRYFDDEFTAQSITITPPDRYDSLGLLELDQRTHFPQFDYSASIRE
T4 sequence (P31749 118-480 S473D): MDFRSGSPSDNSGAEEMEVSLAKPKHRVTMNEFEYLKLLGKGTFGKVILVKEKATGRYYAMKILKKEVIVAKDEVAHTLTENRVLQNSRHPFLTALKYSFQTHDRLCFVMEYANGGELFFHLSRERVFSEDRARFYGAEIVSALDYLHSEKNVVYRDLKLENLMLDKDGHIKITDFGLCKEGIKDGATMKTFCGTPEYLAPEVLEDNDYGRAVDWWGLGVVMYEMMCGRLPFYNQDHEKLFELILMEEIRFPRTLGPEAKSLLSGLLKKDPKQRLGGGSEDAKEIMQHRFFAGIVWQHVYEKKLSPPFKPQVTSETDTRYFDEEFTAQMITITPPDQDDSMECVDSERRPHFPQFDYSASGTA
T7 sequence (Q9P289 whole entry): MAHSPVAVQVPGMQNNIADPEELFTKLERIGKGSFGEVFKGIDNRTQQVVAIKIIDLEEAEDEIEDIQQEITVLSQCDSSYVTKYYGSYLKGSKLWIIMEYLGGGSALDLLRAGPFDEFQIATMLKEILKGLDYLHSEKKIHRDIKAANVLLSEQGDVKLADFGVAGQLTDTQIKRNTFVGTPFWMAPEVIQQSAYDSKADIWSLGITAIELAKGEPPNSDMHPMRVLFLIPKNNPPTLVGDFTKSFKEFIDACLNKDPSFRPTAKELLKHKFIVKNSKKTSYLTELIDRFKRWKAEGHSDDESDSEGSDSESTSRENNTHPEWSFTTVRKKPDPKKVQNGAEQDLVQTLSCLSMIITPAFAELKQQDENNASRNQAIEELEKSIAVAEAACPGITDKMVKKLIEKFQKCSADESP
T2 sequence (Q96SB4 whole entry): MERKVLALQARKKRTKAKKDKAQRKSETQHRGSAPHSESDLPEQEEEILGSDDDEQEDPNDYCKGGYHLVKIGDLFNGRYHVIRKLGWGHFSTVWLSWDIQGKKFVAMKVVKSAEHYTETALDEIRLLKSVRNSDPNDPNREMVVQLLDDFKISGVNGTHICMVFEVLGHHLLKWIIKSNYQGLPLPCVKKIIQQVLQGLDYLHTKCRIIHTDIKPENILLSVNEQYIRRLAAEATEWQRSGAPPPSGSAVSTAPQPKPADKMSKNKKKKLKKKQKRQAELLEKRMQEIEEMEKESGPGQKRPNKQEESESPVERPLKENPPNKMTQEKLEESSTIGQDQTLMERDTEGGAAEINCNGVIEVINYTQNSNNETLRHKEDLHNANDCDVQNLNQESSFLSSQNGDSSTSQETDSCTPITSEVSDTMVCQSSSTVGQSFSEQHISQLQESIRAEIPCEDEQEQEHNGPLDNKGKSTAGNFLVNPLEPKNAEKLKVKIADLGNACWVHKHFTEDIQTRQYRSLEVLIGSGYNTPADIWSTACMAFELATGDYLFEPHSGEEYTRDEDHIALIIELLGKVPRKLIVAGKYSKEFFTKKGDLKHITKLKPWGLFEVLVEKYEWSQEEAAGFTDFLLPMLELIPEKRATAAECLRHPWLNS
T5 sequence (P06239 whole entry): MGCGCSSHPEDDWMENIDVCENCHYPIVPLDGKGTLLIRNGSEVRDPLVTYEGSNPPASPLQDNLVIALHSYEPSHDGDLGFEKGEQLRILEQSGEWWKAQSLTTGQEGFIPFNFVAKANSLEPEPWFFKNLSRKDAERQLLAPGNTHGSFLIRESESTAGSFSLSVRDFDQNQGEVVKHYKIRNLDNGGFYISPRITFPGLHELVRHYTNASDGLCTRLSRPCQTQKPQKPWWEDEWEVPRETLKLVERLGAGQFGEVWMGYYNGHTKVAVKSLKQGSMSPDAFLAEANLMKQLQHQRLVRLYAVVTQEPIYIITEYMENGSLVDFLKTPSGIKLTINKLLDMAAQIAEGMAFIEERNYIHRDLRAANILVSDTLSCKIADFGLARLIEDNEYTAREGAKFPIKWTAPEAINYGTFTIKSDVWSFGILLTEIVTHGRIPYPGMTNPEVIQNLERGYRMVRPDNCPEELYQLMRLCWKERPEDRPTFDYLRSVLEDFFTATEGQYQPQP
T6 sequence (Q9NQU5 whole entry): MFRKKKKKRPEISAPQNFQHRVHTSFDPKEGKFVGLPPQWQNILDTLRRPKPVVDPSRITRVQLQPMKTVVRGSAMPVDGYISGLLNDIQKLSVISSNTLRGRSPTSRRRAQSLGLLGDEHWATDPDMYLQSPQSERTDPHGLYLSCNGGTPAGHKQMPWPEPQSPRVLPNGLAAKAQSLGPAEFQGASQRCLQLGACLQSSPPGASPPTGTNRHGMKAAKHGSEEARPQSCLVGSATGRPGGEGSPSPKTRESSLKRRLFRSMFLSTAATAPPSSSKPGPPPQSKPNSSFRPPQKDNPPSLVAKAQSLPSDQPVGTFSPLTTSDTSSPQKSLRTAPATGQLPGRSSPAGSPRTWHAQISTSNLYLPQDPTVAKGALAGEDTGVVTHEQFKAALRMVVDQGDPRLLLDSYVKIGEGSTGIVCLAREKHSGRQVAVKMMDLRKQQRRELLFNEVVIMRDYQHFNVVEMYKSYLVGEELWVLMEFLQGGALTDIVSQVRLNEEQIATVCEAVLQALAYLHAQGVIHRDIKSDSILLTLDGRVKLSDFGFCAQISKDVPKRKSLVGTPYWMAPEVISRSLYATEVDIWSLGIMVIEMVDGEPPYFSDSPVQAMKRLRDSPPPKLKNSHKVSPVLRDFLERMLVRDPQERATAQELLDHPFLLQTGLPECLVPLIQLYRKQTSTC
T1 sequence (P27361 whole entry): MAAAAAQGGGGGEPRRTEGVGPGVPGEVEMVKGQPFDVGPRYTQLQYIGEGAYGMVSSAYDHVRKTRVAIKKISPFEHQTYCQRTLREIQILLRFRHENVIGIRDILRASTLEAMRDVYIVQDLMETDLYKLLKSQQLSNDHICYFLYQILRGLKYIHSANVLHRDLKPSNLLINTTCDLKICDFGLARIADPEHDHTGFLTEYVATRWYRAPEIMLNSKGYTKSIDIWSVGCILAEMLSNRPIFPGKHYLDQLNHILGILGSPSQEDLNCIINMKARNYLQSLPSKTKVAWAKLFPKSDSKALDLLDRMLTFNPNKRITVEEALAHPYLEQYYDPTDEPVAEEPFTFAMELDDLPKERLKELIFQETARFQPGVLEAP

As for `O=C(NCCCNc1nc(Nc2cccc(F)c2)ncc1Br)C1CCC1` [Compound A, cyclobutanecarboxylic acid {3-[5-bromo-2-(3-fluoro-phenylamino)-pyrimidin-4-ylamino]-propyl}-amide, reference compound], the remaining activity at 10 µM is 7% on ERK1 (read-out: residual kinase activity ERK1); 31% at SRPK1 (read-out: residual kinase activity SRPK1); 22% at CAMKKb (read-out: residual kinase activity CAMKKb); 92% on PKBa (read-out: residual kinase activity PKBa); 10% at Lck (read-out: residual kinase activity Lck); 14% on PAK6 (read-out: residual kinase activity PAK6). The remaining activity at 10 µM amounted to 47% at MST4 (read-out: residual kinase activity MST4), 38% at DYRK1A (read-out: residual kinase activity DYRK1A) and 93% on PKBb (setting [1]). Besides, on ERK1 (1 μm compound), the “residual kinase activity ERK1” value worked out at 28%. Besides, on SRPK1 (1 μm compound), the “residual kinase activity SRPK1” value is 69%. Moreover, on CAMKKb (1 μm compound), the “residual kinase activity CAMKKb” value is 27%. Also, the “residual kinase activity ROCK 2” value in the assay with ROCK 2 (10 μM compound) was found to be 11%; in the assay on ROCK 2 (1 μm compound) it was 33%. Moreover, the remaining activity at 1 µM on PKBa (1 μm compound, read-out: residual kinase activity PKBa) is 107%; at PKBb (setting [1]) it was 91%. Besides, the “residual kinase activity Lck” value at Lck (1 μm compound) was 57%. The “residual kinase activity CK1” value in the assay on CK1 (10 μM compound) came out at 50%; with CK1 (1 μm compound), 91%. For the same compound, the “residual kinase activity PAK6” value at PAK6 (1 μm compound) is 45%. The “residual kinase activity IRR” value in the assay with IRR (10 μM compound) amounted to 15%; in the assay on IRR (1 μm compound), 32%. The “residual kinase activity MST4” value at MST4 (1 μm compound) turned out to be 90%. Moreover, at DYRK1A (1 μm compound), the “residual kinase activity DYRK1A” value turned out to be 74%.

Regarding `O=C(NCCCNc1nc(Nc2cccc(N3CCCC3=O)c2)ncc1C1CC1)c1cccs1` [Example 47, Thiophene-2-carboxylic acid (3-{5-cyclopropyl-2-[3-(2-oxo-pyrrolidin-1-yl)-phenylamino]-pyrimidin-4-ylamino}-propyl)-amide. Hydrochloride salt], the remaining activity at 1 µM was 89% at ERK1 (setting [2]); 81% on SRPK1 (setting [3]); 61% at CAMKKb (setting [4]); 101% at PKBa (setting [5]); 105% at Lck (setting [7]); 77% at PAK6 (setting [8]). Also, the remaining activity at 1 µM worked out at 124% at MST4 (setting [9]), 84% at DYRK1A (setting [10]) and 117% on PKBb (setting [11]). The remaining activity at 10 µM at ERK1 (setting [2]) is 81%; at SRPK1 (setting [3]), 78%; at CAMKKb (setting [4]), 36%; on PKBa (setting [6]) it was 90%; on Lck (setting [7]), 69%; on PAK6 (setting [8]), 85%. The results for the remaining activity at 10 µM at MST4 (setting [9]), at DYRK1A (setting [10]) and at PKBb (setting [11]) were 111%, 78% and 97%, respectively. Besides, the residual kinase activity is on record as 85% in the assay on ROCK 2 (1 μM compound); 48% with ROCK 2 (10 μM compound); 102% with CK1 (1 μM compound); 106% with CK1 (10 μM compound); 64% in the assay with IRR (1 μM compound); 25% with IRR (10 μM compound).

`O=C(NCCCNc1nc(Nc2cccnc2)ncc1C1CC1)c1cccs1` [Example 50, Thiophene-2-carboxylic acid {3-[5-cyclopropyl-2-(pyridin-3-ylamino)-pyrimidin-4-ylamino]-propyl}-amide]: the remaining activity at 1 µM amounted to 99% at ERK1 (setting [2]); 84% at SRPK1 (setting [3]); 72% at CAMKKb (setting [4]); 109% at PKBa (setting [5]); 91% at Lck (setting [7]); 78% on PAK6 (setting [8]). Also, the values for the remaining activity at 1 µM at MST4 (setting [9]), on DYRK1A (setting [10]) and at PKBb (setting [11]) were 164%, 88% and 116%, respectively. Besides, the remaining activity at 10 µM came out at 65% at ERK1 (setting [2]); 57% at SRPK1 (setting [3]); 40% at CAMKKb (setting [4]); 97% on PKBa (setting [6]); 50% at Lck (setting [7]); 50% at PAK6 (setting [8]). Moreover, the remaining activity at 10 µM on MST4 (setting [9]) came to 120%; at DYRK1A (setting [10]), 57%; on PKBb (setting [11]), 107%. For the same compound, the residual kinase activity turned out to be 77% with ROCK 2 (1 μM compound); 51% with ROCK 2 (10 μM compound); 107% in the assay on CK1 (1 μM compound); 82% with CK1 (10 μM compound); 39% in the assay on IRR (1 μM compound); 17% in the assay with IRR (10 μM compound).
